In ChEMBL document CHEMBL1201862, “PubChem BioAssay data set” (2004):
Active and inactive are the calls of the source.

Key:
[1] = target: T1, Heat shock factor protein 1 (Mus musculus, UniProt P38532); test: enhancement of HSF1-driven luciferase signal – cell-based, NIH3T3, luminescence, dose retest, confirmation (AID 435004); format: functional;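 further: stress induced by proteasome inhibitor MG132 added 30 min after compound; luciferase reporter driven by HSF1 response element in NIH3T3 cells; actives raise luminescence as potentiators of the MG132 stress response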
T1 sequence (P38532 whole entry): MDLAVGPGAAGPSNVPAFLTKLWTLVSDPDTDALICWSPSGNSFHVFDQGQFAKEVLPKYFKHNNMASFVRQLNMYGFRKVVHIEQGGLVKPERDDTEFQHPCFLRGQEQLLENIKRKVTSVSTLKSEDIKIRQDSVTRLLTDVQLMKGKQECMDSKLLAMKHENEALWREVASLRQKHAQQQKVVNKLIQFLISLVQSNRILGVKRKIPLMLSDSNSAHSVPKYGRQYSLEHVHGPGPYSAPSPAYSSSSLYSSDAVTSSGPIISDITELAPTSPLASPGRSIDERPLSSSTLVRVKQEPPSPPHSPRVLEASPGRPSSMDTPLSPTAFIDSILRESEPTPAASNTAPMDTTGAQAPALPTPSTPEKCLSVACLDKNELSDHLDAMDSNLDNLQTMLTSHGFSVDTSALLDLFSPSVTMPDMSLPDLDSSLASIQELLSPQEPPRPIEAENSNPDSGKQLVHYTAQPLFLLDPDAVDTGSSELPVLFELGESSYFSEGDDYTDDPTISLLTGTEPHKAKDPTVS

[2] = Luminescence Cell-Based Dose Response HTS to Identify Inhibitors of 5'UTR Stem-Loop Driven Prion Protein mRNA Translation in H4 Neuroglioblastoma Cells. [Related pubchem assays: 1827 (Project Summary), 1813 (Primary HTS)]; format: functional
[3] = luciferase reporter signal suppression in cells – H4 neuroglioma cells, luminescence, dose response (AID 1990); format: functional, cell-based
[4] = alpha-synuclein stem-loop luciferase translation blockers – H4 neuroglioma cells, luminescence, confirmation (AID 1988); format: functional, cell-based
[5] = tested on: H9c2; test: cells; format: functional, cell-based; conditions: Rattus norvegicus, H9c2, Myocardium;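 further: confirmatory concentration-response retest of ultra-high-throughput screening hits for modulation of myocardial damage; cell death induced by hydrogen peroxide oxidative stress; compound pretreatment for 60 min then peroxide exposure for 2 h; potency is for protecting the cells against peroxide damage rather than for killing them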
[6] = target: Cytochrome P450 2C9 (Homo sapiens, UniProt P11712)
[7] = target: Cytochrome P450 2C19 (Homo sapiens, UniProt P33261); test: Cytochrome panel assay with activity outcomes. Panel member name: p450-cyp2c19 Compounds with AC50 equal or less than 10 uM are considered active; format: functional; conditions: read-out: AC50
[8] = target: Cytochrome P450 3A4 (Homo sapiens, UniProt P08684);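 further: CYP3A4 tested as one member of a cytochrome P450 panel screen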
[9] = target: T2, Cytochrome P450 1A2 (Homo sapiens, UniProt P05177);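 further: PubChem cytochrome P450 panel assay, CYP1A2 panel member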
T2 sequence (P05177 whole entry): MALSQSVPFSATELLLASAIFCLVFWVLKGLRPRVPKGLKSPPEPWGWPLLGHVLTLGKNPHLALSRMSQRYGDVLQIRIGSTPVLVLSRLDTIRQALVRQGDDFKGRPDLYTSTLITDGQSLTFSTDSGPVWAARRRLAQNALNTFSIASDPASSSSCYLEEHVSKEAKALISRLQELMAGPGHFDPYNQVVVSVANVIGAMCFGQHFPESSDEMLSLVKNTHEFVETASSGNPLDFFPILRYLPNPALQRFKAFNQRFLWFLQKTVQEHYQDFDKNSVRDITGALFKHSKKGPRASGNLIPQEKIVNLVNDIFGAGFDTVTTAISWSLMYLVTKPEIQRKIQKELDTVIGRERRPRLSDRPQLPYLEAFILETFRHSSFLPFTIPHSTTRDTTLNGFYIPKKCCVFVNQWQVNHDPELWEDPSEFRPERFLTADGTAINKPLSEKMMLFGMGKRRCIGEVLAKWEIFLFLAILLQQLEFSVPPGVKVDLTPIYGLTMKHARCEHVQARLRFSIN

[10] = viability of uninfected HEp-2 cells – cell-based, HTS, cytotoxicity control for RSV inhibitor project, dose response (AID 2410); format: functional; conditions: human respiratory syncytial virus
[11] = reduction of Shn3 3'UTR-driven luciferase in osteoblasts – cell-based, Clone20 osteoblasts, firefly luciferase, cherry-picked, dose response (AID 624132); format: functional;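 further: firefly luciferase luminescence from reporter carrying the Shn3 3'UTR in osteoblasts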
[12] = tested on: Streptococcus sp. 'group A'; test: Streptococcus pyogenes SK(-)GAS viability under kanamycin – luminescence, BacTiterGlo, confirmation, counter-screen for streptokinase expression inhibitor project, dose response (AID 1900); format: functional, organism-based
[13] = tested on: Streptococcus; test: GAS UMAA2166 growth inhibition – luminescence, BacTiterGlo, counter-screen for streptokinase expression inhibitor project, dose response (AID 1915); format: functional, organism-based;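 further: potency for reduction of bacterial viability or growth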
[14] = target: T3, Streptokinase A (Streptococcus pyogenes serotype M1, UniProt P10520); test: viability-normalized secreted streptokinase activity reduction – plasminogen activation absorbance, OD405, dose response (AID 1914); format: functional, Streptococcus pyogenes M1 GAS;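 further: secreted streptokinase activity via plasminogen activation per viability signal from cell pellet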
T3 sequence (P10520 whole entry): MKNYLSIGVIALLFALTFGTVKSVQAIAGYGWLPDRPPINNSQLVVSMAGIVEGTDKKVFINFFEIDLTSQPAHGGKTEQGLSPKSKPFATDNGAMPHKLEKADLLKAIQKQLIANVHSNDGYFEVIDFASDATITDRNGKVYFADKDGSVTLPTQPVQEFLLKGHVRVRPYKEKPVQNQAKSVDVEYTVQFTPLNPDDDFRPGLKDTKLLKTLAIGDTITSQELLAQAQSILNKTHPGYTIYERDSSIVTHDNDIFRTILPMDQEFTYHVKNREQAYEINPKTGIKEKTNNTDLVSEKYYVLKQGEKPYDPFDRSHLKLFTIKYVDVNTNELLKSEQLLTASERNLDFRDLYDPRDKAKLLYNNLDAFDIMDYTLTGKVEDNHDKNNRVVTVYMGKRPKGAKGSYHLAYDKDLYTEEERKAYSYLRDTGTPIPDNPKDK

[15] = target: Cytochrome P450 2D6 (Homo sapiens, UniProt P10635);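 further: CYP2D6 member of a cytochrome P450 panel assay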
[16] = target: Paired box protein Pax-8 (Homo sapiens, UniProt Q06710); test: PAX8 transcriptional activity inhibition in RMG-I – RMG-I cells, luciferase, cherry-pick, dose response (AID 687027); format: functional, cell-based;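 further: luciferase reporter driven by Pax8 target thyroperoxidase promoter measured by SteadyGlo luminescence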
Sequence of Paired box protein Pax-8 (Q06710 whole entry): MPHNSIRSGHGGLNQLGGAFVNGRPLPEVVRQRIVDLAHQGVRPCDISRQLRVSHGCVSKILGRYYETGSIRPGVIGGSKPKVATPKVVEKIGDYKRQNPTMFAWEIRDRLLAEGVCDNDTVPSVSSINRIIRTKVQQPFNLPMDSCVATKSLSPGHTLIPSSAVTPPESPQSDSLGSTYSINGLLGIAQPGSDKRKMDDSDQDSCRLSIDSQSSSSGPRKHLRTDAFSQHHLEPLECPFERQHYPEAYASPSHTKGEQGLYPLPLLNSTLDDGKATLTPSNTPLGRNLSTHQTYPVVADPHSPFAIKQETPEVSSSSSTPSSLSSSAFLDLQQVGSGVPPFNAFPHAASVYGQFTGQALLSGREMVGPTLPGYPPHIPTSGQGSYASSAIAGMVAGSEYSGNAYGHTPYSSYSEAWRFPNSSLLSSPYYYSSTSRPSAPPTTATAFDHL

Sequence of Cytochrome P450 3A4 (P08684 whole entry): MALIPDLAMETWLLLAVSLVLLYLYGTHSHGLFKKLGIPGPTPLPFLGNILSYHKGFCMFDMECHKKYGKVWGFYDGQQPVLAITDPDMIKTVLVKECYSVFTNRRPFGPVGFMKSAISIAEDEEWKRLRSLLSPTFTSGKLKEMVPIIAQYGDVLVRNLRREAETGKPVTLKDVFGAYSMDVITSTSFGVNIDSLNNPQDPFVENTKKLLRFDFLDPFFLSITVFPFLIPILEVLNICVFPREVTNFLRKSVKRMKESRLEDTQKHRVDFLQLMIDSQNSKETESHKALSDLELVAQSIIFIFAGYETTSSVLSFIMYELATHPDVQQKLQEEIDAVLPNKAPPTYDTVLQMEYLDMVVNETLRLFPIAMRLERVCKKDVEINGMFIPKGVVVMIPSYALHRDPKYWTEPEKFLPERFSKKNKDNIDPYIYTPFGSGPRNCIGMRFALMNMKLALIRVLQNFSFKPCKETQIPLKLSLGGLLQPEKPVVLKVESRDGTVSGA
Sequence of Cytochrome P450 2C19 (P33261 whole entry): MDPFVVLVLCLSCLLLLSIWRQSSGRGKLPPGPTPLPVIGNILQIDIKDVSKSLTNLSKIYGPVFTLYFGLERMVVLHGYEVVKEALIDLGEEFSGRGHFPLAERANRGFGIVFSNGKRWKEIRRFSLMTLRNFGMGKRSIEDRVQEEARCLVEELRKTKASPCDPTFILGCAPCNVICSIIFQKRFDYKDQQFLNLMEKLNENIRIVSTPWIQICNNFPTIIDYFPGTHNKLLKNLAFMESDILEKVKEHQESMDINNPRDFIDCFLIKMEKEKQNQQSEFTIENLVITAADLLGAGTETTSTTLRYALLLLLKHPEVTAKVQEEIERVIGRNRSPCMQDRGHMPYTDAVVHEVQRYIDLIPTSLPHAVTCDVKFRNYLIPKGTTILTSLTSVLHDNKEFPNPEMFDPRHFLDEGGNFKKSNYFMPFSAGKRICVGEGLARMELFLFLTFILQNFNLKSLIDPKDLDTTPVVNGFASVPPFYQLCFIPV
Sequence of Cytochrome P450 2D6 (P10635 whole entry): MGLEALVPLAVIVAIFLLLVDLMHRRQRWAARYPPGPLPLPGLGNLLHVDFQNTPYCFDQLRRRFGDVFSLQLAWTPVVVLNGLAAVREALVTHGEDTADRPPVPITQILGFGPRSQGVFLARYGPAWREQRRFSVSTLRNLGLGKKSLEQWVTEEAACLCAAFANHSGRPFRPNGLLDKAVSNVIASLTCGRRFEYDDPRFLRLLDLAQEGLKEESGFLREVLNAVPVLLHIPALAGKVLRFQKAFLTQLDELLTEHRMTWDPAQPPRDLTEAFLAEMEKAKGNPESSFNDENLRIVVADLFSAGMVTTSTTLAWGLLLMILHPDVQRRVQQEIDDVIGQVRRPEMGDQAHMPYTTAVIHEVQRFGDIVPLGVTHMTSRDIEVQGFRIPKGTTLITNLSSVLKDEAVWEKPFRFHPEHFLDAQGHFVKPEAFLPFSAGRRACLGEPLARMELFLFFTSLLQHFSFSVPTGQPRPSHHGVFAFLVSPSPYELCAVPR
Sequence of Cytochrome P450 2C9 (P11712 whole entry): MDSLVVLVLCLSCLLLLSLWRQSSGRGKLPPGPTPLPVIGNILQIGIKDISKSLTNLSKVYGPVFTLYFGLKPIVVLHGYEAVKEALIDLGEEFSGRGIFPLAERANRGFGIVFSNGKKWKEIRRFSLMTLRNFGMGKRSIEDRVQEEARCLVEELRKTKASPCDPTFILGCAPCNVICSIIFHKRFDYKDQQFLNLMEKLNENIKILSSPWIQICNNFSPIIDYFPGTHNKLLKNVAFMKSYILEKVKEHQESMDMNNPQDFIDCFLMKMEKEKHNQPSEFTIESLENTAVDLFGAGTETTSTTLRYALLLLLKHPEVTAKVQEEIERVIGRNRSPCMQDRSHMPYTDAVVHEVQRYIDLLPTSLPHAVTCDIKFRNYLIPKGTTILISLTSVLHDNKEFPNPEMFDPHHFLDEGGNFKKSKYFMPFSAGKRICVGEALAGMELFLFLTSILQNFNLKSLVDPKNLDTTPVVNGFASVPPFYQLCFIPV

Question: With `Brc1ccc2c(c1)C(c1cccnc1)=NNC(c1cccs1)=N2` as the molecule, how does the EC50 [1] read?
Answer: 93.6 µM (active)

Question: With `CC1=Nc2ccccc2/C1=C/c1nc(-c2ccc(C)s2)oc1O` as the molecule, how does the EC50 [1] read?
Answer: 21.4 µM (active)

Question: For `Cc1ccc(C)c(Nc2c([N+](=O)[O-])ccc3nonc23)c1`, which EC50 [2] is on record?
Answer: > 120 µM (not active)

Question: And the EC50 [3]?
Answer: 19.9 µM (active)

Question: And the EC50 [4]?
Answer: 53.7 µM (active)

Question: With `COc1ccccc1OCC(=O)Nc1cccc(-c2nnc(-c3ccco3)o2)c1` as the molecule, how does the IC50 [5] read?
Answer: > 79 µM (inactive)

Question: With `Cc1ccc(-c2csc(NC(=O)Cn3[nH]c(=O)c4ccccc4c3=O)n2)cc1` as the molecule, how does the IC50 [5] read?
Answer: > 79 µM (inactive)

Question: With `COC(=O)c1ccccc1NC(=O)CSc1nc(Nc2ccccc2)nc(N2CCOCC2)n1` as the molecule, how does the EC50 [1] read?
Answer: > 260 µM (inactive)

Question: With `Cc1nc2cncnc2n(Cc2ccc(F)cc2)c1=O` as the molecule, how does the AC50 [6] read?
Answer: 25.1 µM (inconclusive)

Question: And the AC50 [7]?
Answer: 39.8 µM (inconclusive)

Question: What about the AC50 [8] of the same molecule?
Answer: 15.8 µM (inconclusive)

Question: With `Cc1nn2c(-c3cccc(NC(=O)c4ccco4)c3)nnc2c2ccccc12` as the molecule, how does the IC50 [5] read?
Answer: > 79 µM (inactive)

Question: With `O=C(NC12CC3CC(CC(C3)C1)C2)N1CCN(c2nc(-c3ccccc3)cs2)CC1` as the molecule, how does the AC50 [9] read?
Answer: 6.31 µM (inconclusive)

Question: What about the AC50 [8] of the same molecule?
Answer: 11.2 µM (inconclusive)

Question: What does the source list for `COc1ccc(Br)cc1C(=O)Nc1cccc(NC(=O)c2ccco2)c1`?
Answer: CC50 [10]: 29.1 µM (active); IC50 [5]: > 79 µM (inactive)

Question: With `COC(=O)C1=C(C)n2nnnc2NC1c1ccc(Cl)cc1` (configuration not stated) as the molecule, how does the EC50 [2] read?
Answer: > 120 µM (not active)

Question: And the EC50 [3]?
Answer: 20.6 µM (active)

Question: And the EC50 [4]?
Answer: > 120 µM (not active)

Question: Which IC50 [5] does the source give for `CCOC(=O)c1cnc(Nc2nc3ccccc3o2)nc1CSc1nnc(C)s1` here?
Answer: 13.4 µM (active)

Question: With `COc1cc(NC(=O)c2cc3c(Cl)nc4ccccc4c3s2)cc(OC)c1OC` as the molecule, how does the AC50 [11] read?
Answer: 24.4 µM (active)

Question: Which AC50 [9] does the source give for `COc1ccc(C2C(C(=O)N3CCOCC3)CCC(=O)N2c2ccc(OC)cc2)cc1` (configuration not stated) here?
Answer: 0.0631 µM (inconclusive)

Question: What about the AC50 [8] of the same molecule?
Answer: 17.8 µM (inconclusive)

Question: Which EC50 [1] does the source give for `COc1cc(C(=O)Nc2ccc(S(=O)(=O)N3CCc4ccccc43)cc2)cc(OC)c1OC` here?
Answer: > 260 µM (inactive)

Question: Which results are given for `COC(=O)C1(CC(C)C)C=C2C(=C(c3ccccc3)C(=O)C2C)CN1` (configuration not stated)?
Answer: AC50 [9]: 15.8 µM (inconclusive); AC50 [8]: 25.1 µM (inconclusive)

Question: Which EC50 [2] does the source give for `Nc1c(Cl)cc(C2=NCCn3c2c2ccc([N+](=O)[O-])cc2[n+]3[O-])cc1Cl` here?
Answer: > 120 µM (not active)

Question: What about the EC50 [12] of the same molecule?
Answer: 2 µM (active)

Question: What about the EC50 [13] of the same molecule?
Answer: 5.67 µM (active)

Question: And the EC50 [3]?
Answer: 14.7 µM (active)

Question: And the EC50 [14]?
Answer: > 150 µM (not active)

Question: What about the EC50 [4] of the same molecule?
Answer: 8.15 µM (active)

Question: For `O=C(NCC1CCCO1)C1CCC(=O)N1CCc1ccccc1` (configuration not stated), which AC50 [7] is on record?
Answer: 7.08 µM (inconclusive)

Question: For `COc1ccc(CNc2nc(-c3ccc(N(C)C)cc3)nc3ccccc23)c(OC)c1`, which AC50 [15] is on record?
Answer: 25.1 µM (inconclusive)

Question: What about the AC50 [8] of the same molecule?
Answer: 5.01 µM (inconclusive)

Question: For `Cc1ccc(NC(=NOCc2ccc(Cl)cc2Cl)c2nonc2N)c(C)c1`, which EC50 [1] is on record?
Answer: > 260 µM (inactive)

Question: Which AC50 [16] does the source give for `CC(=O)OC(C)(C)/C=C/C(=O)[C@](C)(O)C1[C@H](O)C[C@@]2(C)C3CC=C4C(C=C(O[C@@H]5O[C@H](CO)[C@@H](O)[C@H](O)[C@H]5O)C(=O)C4(C)C)[C@]3(C)C(=O)C[C@]12C` (some centres not stated) here?
Answer: 7.14 µM (active)
